{
  "source": "paper PMC10073126",
  "about": "“Levosimendan inhibits disulfide tau oligomerization and ameliorates tau pathology in Tau^P301L-BiFC mice” (Experimental & Molecular Medicine, 2023)",
  "key": {"Tau-BiFC cells": {"tested_on": "Tau-BiFC cells", "assay": "Flow cytometry analysis of tau-BiFC cells", "assay_type": "cell-based, human", "conditions": "for P1: intact cell population out of total cells: 24 h; for Median BiFC fluorescence intensity of BiFC-responding cells: BiFC^ON control […] ± 62, basal 332 ± 110", "procedure": "After 24 h, BiFC cells were collected and subjected to flow cytometry analysis using a BD FACSLyric^TM cytometer (BD Biosciences). A total of 50,000 events were acquired per sample. All samples were gated using the same gating tree and gate positions: side scatter area (SSC-A) vs. forward scatter area (FSC-A) for viable and singlet cell populations. BiFC fluorescence was excited by a 488 nm wave laser and collected through a 527/32 bandpass filter."}, "tau [1]": {"tested_on": "tau", "assay": "Tau immunoblot of primary hippocampal neuron lysates", "assay_type": "cell-based, rat", "conditions": "primary neurons, tauK18^P301L; for Level of disulfide-linked tau oligomers compared to basal: nonreducing SDS-PAGE, control 1.8 ± 0.3-fold", "procedure": "Band intensity was quantified using ImageJ software (NIH). All data were normalized to β-actin.\n(§1) Primary hippocampal neurons were isolated from Day 18 embryonic Sprague‒Dawley rat brains as described previously. The neurons were seeded at a density of 3.5 × 10^5 cells per well on a poly-D-lysine-coated 6-well plate and maintained in neurobasal medium at 37 °C in a humidified atmosphere of 5% CO2. The neurobasal medium contained 2% B27 supplement, 0.5 mM GlutaMAX, 100 units/mL penicillin, and 100 μg/mL streptomycin. Every 3 days, 50% of the medium was replaced with fresh neurobasal medium. At DIV10, neurons were incubated with MB, LMTM (3 µM), or levosimendan (10 µM) in the presence of tauK18^P301L (10 µg/mL) for 48 h."}, "[2]": {"tested_on": "primary hippocampal neurons", "assay": "NeuO staining, number of neurons and neurite lengths", "assay_type": "cell-based", "conditions": "for Number of NeuO-stained live neurons / Neurite length: tauK18^P301L, 48 h; for Number of NeuO-stained live neurons: basal 1925 ± 66, control 943 ± 30; for Neurite length: control 142.8 ± 17.8 μm", "procedure": "as §1\nAt DIV10, neurons grown on a 96-well plate were treated with MB, LMTM (3 µM), or levosimendan (10 µM) followed by tauK18^P301L activation. After 48 h, the neurons were stained with NueO (50 nM), a neuron-selective probe. NeuO fluorescence (λex = 460–490 nm and λem = 518–580 nm) images were acquired by using Operetta® (PerkinElmer). The number of neurons and total lengths of neurites were quantified by Harmony 3.1 software (PerkinElmer). Error bars represent the standard deviations (S.D.) of four replicate experiments."}, "tauK18 [3]": {"target": "T1, tauK18 (Homo sapiens, UniProt P10636)", "T1 construct": "under in vitro conditions using a purified tauK18 fragment; 6xHis; made in house; host or cells: E. coli BL21 (DE3)", "assay": "TauK18 oligomerization assay in vitro (SDS-PAGE)", "assay_type": "biochemical", "conditions": "5 h, nonreducing SDS-PAGE, DMSO control 50 ± 1.1%", "procedure": "To induce tau oligomerization, tauK18 (0.5 mg/mL dissolved in PBS, pH 7.4) was incubated with each drug in the presence of DTT (100 μM) and heparin (0.1 mg/mL) at RT for 5 h with vigorous shaking. Then, tau oligomers were separated on 4–20% SDS‒PAGE gels under reducing and nonreducing conditions and visualized by Coomassie blue staining."}, "tauK18 [4]": {"target": "T1, tauK18", "assay": "In vitro tau aggregation assay (thioflavin S)", "assay_type": "biochemical", "conditions": "5 days; for EC50: tauK18 with heparin and DTT, read-out: EC50, inhibition of tau aggregation (ThS)", "procedure": "To evaluate the inhibitory effect of drugs on tau aggregation, tauK18 protein (0.5 mg/mL) was incubated with each drug at various concentrations in the presence of DTT (100 μM) and heparin (0.1 mg/mL) at 37 °C for 5 days with vigorous shaking (220 rpm). For the tau disaggregation assay, the preformed aggregation mixture of tauK18 was incubated with each drug at 37 °C for 4 days with vigorous shaking (220 rpm). On the final day of incubation, the level of β-sheet aggregates was evaluated by thioflavin S (ThS) assay. For the ThS assay, 5 μL of each mixture was transferred to a black 384-well plate with 45 μL of PBS containing 10 μM ThS. ThS fluorescence (λex = 430 nm, and λem = 500 nm) was measured by using a Flexstation2 spectrophotometer (Molecular Devices)."}, "Tau^P301L-BiFC mice [5]": {"tested_on": "Tau^P301L-BiFC mice", "assay": "Y-maze test", "assay_type": "in vivo, mouse", "conditions": "5 mg/kg i.p., three times a week, 4 months; vehicle TG 52.8 ± 2.6%", "procedure": "(§2) For drug administration, LMTM and levosimendan were dissolved in PBS containing 40% polyethylene glycol (PEG; Sigma). Nine-month-old Tau^P301L-BiFC mice were intraperitoneally administered each drug for 4 months, three times a week, at a dosage of 5 mg/kg (n = 11 per group). Vehicle-treated Tau^P301L-BiFC mice and age-matched wild-type mice were used as control groups. Behavioral assessments were conducted as described below for one month from the end of drug administration. All mice were sacrificed at the age of 14 months for pathological analysis.\nMice (n = 11 per group) were tested for spontaneous alternation behavior in a Y-shaped maze (60 cm in length of each arm, 20 cm in depth) using a standard protocol. Spontaneous alternation for 8 min was calculated as the proportion of alternations. Alteration (%) was defined as consecutive entries in three different arms (ABCs) divided by the number of possible alterations (total arm entries minus 2)[43]."}, "Tau^P301L-BiFC mice [6]": {"tested_on": "Tau^P301L-BiFC mice", "assay": "Passive avoidance test", "assay_type": "in vivo, mouse", "conditions": "5 mg/kg i.p., three times a week, 4 months; compared with vehicle-treated TG", "procedure": "as §2\nThe passive avoidance test was performed as described previously[44] with the following modifications. Mice (n = 8 per group) were adapted in the passive avoidance chamber (Gemini) for 10 min and then returned to their home cages. The chamber is composed of a light compartment and a dark compartment separated by a connecting gate. The following day, the mice were placed in the light compartment, and the gate was opened after 30 s. When mice entered the dark compartment, the gate was closed, and an electrical foot shock (3 mA) was delivered for 2 s. The mice were left in the dark compartment for 30 s after the foot shock so that they associated the environment with the aversive stimulus. The mice were then returned to their home cages. […] The step-through latency, the time required for mice to enter the dark compartment, was measured up to 540 s."}, "tau [7]": {"target": "T2, tau (Homo sapiens, UniProt P10636)", "assay": "Tau immunoblot of tau-BiFC cell lysates (reducing and nonreducing SDS-PAGE)", "conditions": "tauK18^P301L-activated tau-BiFC cells; for Level of disulfide-linked tau oligomers compared to basal: nonreducing SDS-PAGE, control 2.4 ± 0.4-fold"}, "tau [8]": {"target": "T2, tau", "assay": "Tau-BiFC response in tau-BiFC cells (high-content imaging)", "assay_type": "cell-based", "set-up": "expressed in transfected cells; host or cells: HEK293 Tau-BiFC cells (G418-selected)", "conditions": "48 h of treatment"}, "[9]": {"conditions": "Tau-BiFC^ON by forskolin (30 μM)"}, "[10]": {"conditions": "Tau-BiFC^ON by tauK18^P301L (5 μg/mL)"}},
  "data": [
    {"smiles": "CN(C)c1ccc2c(c1)Sc1cc(N(C)C)ccc1N2.CS(=O)(=O)O.CS(=O)(=O)O", "note": "[LMTM, leucomethylene blue mesylate]", "values": [
      {"measurement": "P1: intact cell population out of total cells", "setting": "Tau-BiFC cells; drug 5 μM with tauK18^P301L", "value": 14.5, "unit": "%"},
      {"measurement": "Median BiFC fluorescence intensity of BiFC-responding cells", "setting": "Tau-BiFC cells; drug 5 μM with tauK18^P301L", "value": "596 ± 57"},
      {"measurement": "Level of disulfide-linked tau oligomers compared to basal", "setting": "tau [1]; 3 μM", "value": "2.4 ± 0.3", "unit": "fold"},
      {"measurement": "Number of NeuO-stained live neurons", "setting": "[2]; 3 μM", "value": "1182 ± 76", "unit": "neurons"},
      {"measurement": "Neurite length", "setting": "[2]; 3 μM", "value": "151.1 ± 24.4", "unit": "μm"},
      {"measurement": "Neuronal cell death in primary hippocampal neurons", "setting": "[2]; higher concentrations over 10 μM (data not shown)", "value": "severe neuronal cell death"},
      {"measurement": "Level of disulfide-linked tau oligomers (of total tau)", "setting": "tauK18 [3]; 100 μM", "value": "79.2 ± 0.8", "unit": "%"},
      {"measurement": "EC50", "setting": "tauK18 [4]", "value": "1900 ± 200", "unit": "nM"},
      {"measurement": "Percent alternation", "setting": "Tau^P301L-BiFC mice [5]", "value": "68.9 ± 3.5", "unit": "%"},
      {"measurement": "Latency of entering the dark compartment", "setting": "Tau^P301L-BiFC mice [6]", "value": "did not show significant improvement"},
      {"measurement": "Level of disulfide-linked tau oligomers compared to basal", "setting": "tau [7]; 5 μM", "value": "1.9 ± 0.4", "unit": "fold"},
      {"measurement": "Level of pS199-positive monomers compared to basal", "setting": "tau [7]; 5 μM, reducing gel", "value": "0.3 ± 0.0", "unit": "fold"},
      {"measurement": "Level of pS199-positive oligomers compared to basal", "setting": "tau [7]; 5 μM, reducing gel", "value": "0.4 ± 0.1", "unit": "fold"},
      {"measurement": "Level of pT205-positive monomers compared to basal", "setting": "tau [7]; 5 μM, reducing gel", "value": "0.2 ± 0.2", "unit": "fold"},
      {"measurement": "Level of pT205-positive oligomers compared to basal", "setting": "tau [7]; 5 μM, reducing gel", "value": "0.6 ± 0.2", "unit": "fold"},
      {"measurement": "EC50", "setting": "tau [8]; [9]", "value": "2200 ± 200", "unit": "nM"},
      {"measurement": "EC50", "setting": "tau [8]; [10]", "value": "2700 ± 200", "unit": "nM"}
    ]},
    {"smiles": "C[C@@H]1CC(=O)NN=C1c1ccc(NN=C(C#N)C#N)cc1", "note": "[Levosimendan]", "values": [
      {"measurement": "P1: intact cell population out of total cells", "setting": "Tau-BiFC cells; drug 15 μM with tauK18^P301L", "value": 69.0, "unit": "%"},
      {"measurement": "Median BiFC fluorescence intensity of BiFC-responding cells", "setting": "Tau-BiFC cells; drug 15 μM with tauK18^P301L", "value": "249 ± 59"},
      {"measurement": "Level of disulfide-linked tau oligomers compared to basal", "setting": "tau [1]; 10 μM", "value": "0.5 ± 0.1", "unit": "fold"},
      {"measurement": "Total tau level compared to basal", "setting": "tau [1]; 10 μM, 48 h, control 1.5 ± 0.1-fold", "value": "1.0 ± 0.1", "unit": "fold"},
      {"measurement": "Tau phosphorylation at S199 compared to basal", "setting": "tau [1]; 10 μM, 48 h, control 1.7 ± 0.1-fold", "value": "0.9 ± 0.1", "unit": "fold"},
      {"measurement": "Tau phosphorylation at S396 compared to basal", "setting": "tau [1]; 10 μM, 48 h, control 2.0 ± 0.3-fold", "value": "0.9 ± 0.1", "unit": "fold"},
      {"measurement": "Number of NeuO-stained live neurons", "setting": "[2]; 10 μM", "value": "1650 ± 114", "unit": "neurons"},
      {"measurement": "Neurite length", "setting": "[2]; 10 μM", "value": "346.8 ± 20.7", "unit": "μm"},
      {"measurement": "Level of disulfide-linked tau oligomers (of total tau)", "setting": "tauK18 [3]; 10 μM", "value": "15.0 ± 6.0", "unit": "%"},
      {"measurement": "Level of disulfide-linked tau oligomers (of total tau)", "setting": "tauK18 [3]; 30 μM", "value": "15.7 ± 7.8", "unit": "%"},
      {"measurement": "Level of disulfide-linked tau oligomers (of total tau)", "setting": "tauK18 [3]; 100 μM", "value": "12.3 ± 15.0", "unit": "%"},
      {"measurement": "Inhibition of tau aggregation in vitro (ThS response)", "setting": "tauK18 [4]; heparin-induced", "value": "strong anti-tau aggregation activity"},
      {"measurement": "EC50", "setting": "tauK18 [4]", "value": "2600 ± 100", "unit": "nM"},
      {"measurement": "Percent alternation", "setting": "Tau^P301L-BiFC mice [5]", "value": "70.4 ± 4.2", "unit": "%"},
      {"measurement": "Latency of entering the dark compartment", "setting": "Tau^P301L-BiFC mice [6]", "value": "delayed latency or not entering the chamber"},
      {"measurement": "Level of disulfide-linked tau oligomers compared to basal", "setting": "tau [7]; 45 μM", "value": "0.8 ± 0.2", "unit": "fold"},
      {"measurement": "Level of tau phosphorylation at T205 compared to basal", "setting": "tau [7]; 45 μM, control 1.9 ± 0.2-fold", "value": "1.0 ± 0.1", "unit": "fold"},
      {"measurement": "Total tau level compared to basal", "setting": "tau [7]; control 2.0 ± 0.1-fold", "value": "1.0 ± 0.2", "unit": "fold"},
      {"measurement": "EC50", "setting": "tau [8]; [9]", "value": "1900 ± 100", "unit": "nM"},
      {"measurement": "EC50", "setting": "tau [8]; [10]", "value": "2200 ± 100", "unit": "nM"}
    ]}
  ]
}
